Laboratory results: patent US20260365671A1, “HETEROCYCLIC COMPOUND” (Takeda Pharmaceutical Company Limited, priority 2022, published 2026)

Columns and labels:
NLRP3 inflammasome = molecular target: T1, NLRP3 inflammasome (Homo sapiens, UniProt Q96P20); assay: IL-1β TR-FRET assay (THP-1 cells differentiated to macrophages with IFN-γ, LPS primed, ATP activated; HTRF); format: cell-based; settings: THP-1 macrophages, 50 ng/mL LPS priming, compound 30 min, 20 mM ATP 2 hours
T1 construct: IL-1beta HTRF
Summary of the method: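 IL-1β release was read by HTRF after 16–24 h antibody incubation at room temperature, using supernatants from THP-1-derived macrophages (IFN-γ 25 ng/mL, LPS 50 ng/mL priming) given compound 30 min and then 20 mM ATP for 2 h. % inhibition versus concentration was fitted logistically for IC50.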

NF-κB pathway = assay: TNF-α assay (THP-1 cells differentiated to macrophages with IFN-γ, NF-κB pathway activated with LPS; ELISA); format: cell-based, Human; settings: compound 30 min, 50 ng/mL LPS 3 hours
Summary of the method: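 TNF-α release measured by ELISA after 3 h stimulation with 50 ng/mL LPS, following 30 min compound pretreatment (37 °C, no FBS). Cells were THP-1 macrophages primed with IFN-γ 25 ng/mL for 24 h. IC50 derived by logistic curve fit.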

[1] = Homo sapiens, THP-1, THP-1 macrophages

T1 sequence (Q96P20 whole entry): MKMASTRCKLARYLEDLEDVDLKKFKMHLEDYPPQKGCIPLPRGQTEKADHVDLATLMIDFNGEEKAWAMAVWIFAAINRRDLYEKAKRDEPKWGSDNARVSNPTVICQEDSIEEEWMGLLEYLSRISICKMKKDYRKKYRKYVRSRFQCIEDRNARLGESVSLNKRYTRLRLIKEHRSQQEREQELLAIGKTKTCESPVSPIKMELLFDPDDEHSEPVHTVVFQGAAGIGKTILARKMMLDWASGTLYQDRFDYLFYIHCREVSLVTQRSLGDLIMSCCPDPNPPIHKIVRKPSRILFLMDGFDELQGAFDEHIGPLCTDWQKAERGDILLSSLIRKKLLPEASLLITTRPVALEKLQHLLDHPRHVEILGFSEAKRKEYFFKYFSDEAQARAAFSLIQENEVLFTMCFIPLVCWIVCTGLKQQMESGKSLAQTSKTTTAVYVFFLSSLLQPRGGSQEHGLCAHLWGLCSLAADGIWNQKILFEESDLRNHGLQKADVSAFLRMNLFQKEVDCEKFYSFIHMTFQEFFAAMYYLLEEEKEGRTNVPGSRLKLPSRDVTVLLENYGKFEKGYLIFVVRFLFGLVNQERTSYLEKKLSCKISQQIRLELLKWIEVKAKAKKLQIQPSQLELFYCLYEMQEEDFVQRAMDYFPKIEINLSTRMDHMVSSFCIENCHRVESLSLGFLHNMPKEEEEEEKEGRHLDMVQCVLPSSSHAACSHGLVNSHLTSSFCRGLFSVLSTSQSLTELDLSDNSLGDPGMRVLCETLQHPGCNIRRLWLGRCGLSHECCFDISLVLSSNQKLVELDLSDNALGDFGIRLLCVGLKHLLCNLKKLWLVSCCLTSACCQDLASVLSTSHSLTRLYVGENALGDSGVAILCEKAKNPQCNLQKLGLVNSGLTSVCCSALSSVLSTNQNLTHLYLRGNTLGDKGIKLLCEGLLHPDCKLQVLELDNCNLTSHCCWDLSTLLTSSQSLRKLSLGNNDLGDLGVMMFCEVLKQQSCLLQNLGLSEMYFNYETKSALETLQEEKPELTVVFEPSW

SMILES	IC50 (NLRP3 inflammasome) [nM]	IC50 (NF-κB pathway; [1]) [nM]	IC50 (NF-κB pathway; THP-1 macrophages) [nM]
Cc1cc(C)c(-n2cc3sc(N(C)C)nc3n2)c(O)c1 [Example 49, 2-[5-(dimethylamino)-2H-pyrazolo[3,4-d][1,3]thiazol-2-yl]-3,5-dimethylphenol]	1300	> 30000	
Cc1cc(C)c(-n2cc3sc(NCC(O)C(F)(F)F)nc3n2)c(O)c1 (stereo not drawn) [Example 163, 3,5-dimethyl-2-{5-[(3,3,3-trifluoro-2-hydroxypropyl)amino]-2H-pyrazolo[3,4-d][1,3]thiazol-2-yl}phenol]	670	> 30000	
Cc1cc(C)c(-n2cc3sc(N[C@@H]4CCCN(CCF)C4)nc3n2)c(O)c1 [Example 42, 2-(5-{[(3R)-1-(2-fluoroethyl)piperidin-3-yl]amino}-2H-pyrazolo[3,4-d][1,3]thiazol-2-yl)-3,5-dimethylphenol]	14	> 30000	
CN1C[C@H](F)C[C@@H](Nc2nc3nn(-c4c(O)cc(F)cc4Cl)cc3s2)C1 [Example 17, 3-chloro-5-fluoro-2-(5-{[(3R,5R)-5-fluoro-1-methylpiperidin-3-yl]amino}-2H-pyrazolo[3,4-d][1,3]thi-azol-2-yl)phenol]	110	> 30000	
Cc1cc(Cl)cc(O)c1-n1cc2sc(N[C@@H]3CCCN(C)C3)nc2n1 [Example 2, 5-chloro-3-methyl-2-(5-{[(3R)-1-methylpiperidin-3-yl]amino}-2H-pyrazolo[3,4-d][1,3]thiazol-2-yl)phenol]	1.6	> 30000	
Cc1cc(O)c(-n2cc3sc(NCC(C)(C)O)nc3n2)c(C2CC2(F)F)c1 (stereo not drawn) [Example 148]	130	> 30000	
Cc1cc(C)c(-n2cc3sc(NC4CCN(C(=O)C5(C#N)CC5)C4)nc3n2)c(O)c1 (stereo not drawn) [Example 99, 1-(3-{[2-(2-hydroxy-4,6-dimethylphenyl)-2H-pyrazolo[3,4-d][1,3]thiazol-5-yl]amino}pyrrolidine-1-carbonyl)cyclopropane-1-carbonitrile]	250	> 30000	
Cc1cc(C)c(-n2cc3sc(N[C@@H]4COCC[C@H]4O)nc3n2)c(O)c1 [Example 165, 1,5-anhydro-2,4-dideoxy-2-{[2-(2-hydroxy-4,6-dimethylphenyl)-2H-pyrazolo[3,4-d][1,3]thiazol-5-yl]amino}-D-threo-pentitol]	1800	> 30000	
Cc1cc(C)c(-n2nc3nc(N[C@@H]4C[C@@H](F)CN(C)C4)sc3c2C)c(O)c1 [Example 70, 2-(5-{[(3R,5R)-5-fluoro-1-methylpiperidin-3-yl]amino}-3-methyl-2H-pyrazolo[3,4-d][1,3]thiazol-2-yl)-3,5-dimethylphenol]	59	> 30000	
Cc1cc(C)c(-n2cc3sc(N[C@@H]4CCCN(C)C4)nc3n2)c(O)c1 [Example 4, 3,5-dimethyl-2-(5-{[(3R)-1-methylpiperidin-3-yl]amino}-2H-pyrazolo[3,4-d][1,3]thiazol-2-yl)phenol]	3.6	> 30000	
CO[C@@H]1C[C@@H](Nc2nc3nn(-c4c(C)cc(C)cc4O)cc3s2)CN(C)C1 [Example 76]	1600	> 30000	
Cc1cc(C)c(-n2cc3sc(N[C@@H]4C[C@@H](F)CN(C)C4)nc3n2)c(O)c1 [Example 3, 2-(5-{[(3R,5R)-5-fluoro-1-methylpiperidin-3-yl]amino}-2H-pyrazolo[3,4-d][1,3]thiazol-2-yl)-3,5-dimethylphenol]	8.2	> 30000	
Cc1cc(C)c(-n2cc3sc(N[C@@H]4CCCN(C(=O)OCC(Cl)(Cl)Cl)C4)nc3n2)c(O)c1 [Example 27, 2,2,2-trichloroethyl (3R)-3-{[2-(2-hydroxy-4,6-dimethylphenyl)-2H-pyrazolo[3,4-d][1,3]thiazol-5-yl]amino}piperidine-1-carboxylate]	620	6300	
Cc1cc(O)c(-n2cc3sc(NC[C@@H](C)O)nc3n2)c(C2CC2)c1 [Example 64, 3-cyclopropyl-2-(5-{[(2R)-2-hydroxypropyl]amino}-2H-pyrazolo[3,4-d][1,3]thiazol-2-yl)-5-methylphenol]	78	> 10000	
Cc1cc(C)c(-n2cc3sc(N[C@H]4CC[C@H](O)CC4)nc3n2)c(O)c1 [Example 25, 2-{5-[(trans-4-hydroxycyclo-hexyl)amino]-2H-pyrazolo[3,4-d][1,3]thiazol-2-yl}-3,5-dimethylphenol]	350	> 10000	

The remaining lines, values ahead:

IC50 (NLRP3 inflammasome) [nM]	IC50 (NF-κB pathway; [1]) [nM]	IC50 (NF-κB pathway; THP-1 macrophages) [nM]	SMILES
280	> 30000		Cc1cc(O)c(-n2cc3sc(NC[C@@H](C)O)nc3n2)c(C(C)C)c1 [Example 93, 2-(5-{[(2R)-2-hydroxypropyl]amino}-2H-pyrazolo[3,4-d][1,3]thiazol-2-yl)5-methyl-3-(propan-2-yl)phenol]
3.6	> 10000		Cc1cc(F)cc(O)c1-n1cc2sc(N[C@@H]3CCCN(C4CC4)C3)nc2n1 [Example 12, 2-(5-{[(3R)-1-cyclopropylpiperidin-3-yl]amino}-2H-pyrazolo[3,4-d][1,3]thiazol-2-yl)-5-fluoro-3-methylphenol]
590	> 10000		Cc1cc(C)c(-n2cc3sc(N[C@H]4COC[C@@H]4F)nc3n2)c(O)c1 (racemic) [Example 121, racemic mixture of 2-(5-{[(3R,4S)-4-fluorooxolan-3-yl]amino}-2H-pyrazolo[3,4-d][1,3]thiazol-2-yl)-3,5-dimethylphenol and 2-(5-{[(3S,4R)-4-fluorooxolan-3-yl]amino}-2H-pyrazolo[3,4-d][1,3]thiazol-2-yl)-3,5-dimethylphenol]
810	> 30000		Cc1cc(C)c(-n2cc3sc(NC4CCN(C)C4=O)nc3n2)c(O)c1 (stereo not drawn) [Example 103, 3-{[2-(2-hydroxy-4,6-dimethylphenyl)-2H-pyrazolo[3,4-d][1,3]thiazol-5-yl]amino}-1-methylpyrrolidin-2-one]
380	> 30000		Cc1cc(C)c(-n2cc3sc(NCC(F)F)nc3n2)c(O)c1 [Example 146, 2-{5-[(2,2-difluoroethyl)amino]-2H-pyrazolo[3,4-d][1,3]thiazol-2-yl}-3,5-dimethylphenol]
22	> 30000		Cc1cc(O)c(-n2cc3sc(N[C@@H]4C[C@@H](F)CN(C)C4)nc3n2)c(COC(F)F)c1 [Example 176, 3-[(difluoromethoxy)methyl]-2-(5-{[(3R,5R)-5-fluoro-1-methylpiperidin-3-yl]amino}-2H-pyrazolo[3,4-d][1,3]thiazol-2-yl)-5-methylphenol]
1100	> 30000		Cc1cc(C)c(-n2cc3sc(NCCN4CCOCC4)nc3n2)c(O)c1 [Example 54, 3,5-dimethyl-2-(5-{[2-(morpholin-4-yl)ethyl]amino}-2H-pyrazolo[3,4-d][1,3]thiazol-2-yl)phenol]
11	> 30000		Oc1cc(F)cc(Cl)c1-n1cc2sc(N[C@@H]3CCCN(C4CC4)C3)nc2n1 [Example 18, 3-chloro-2-(5-{[(3R)-1-cyclopropyl-piperidin-3-yl]amino}-2H-pyrazolo[3,4-d][1,3]thiazol-2-yl)-5-fluorophenol]
480	> 10000		Cc1cc(C)c(-n2cc3sc(NC4CCCC4O)nc3n2)c(O)c1 (stereo not drawn) [Example 28, 2-{5-[(2-hydroxycyclopentyl)amino]-2H-pyrazolo[3,4-d][1,3]thiazol-2-yl}-3,5-dimethylphenol]
46		> 10000	Cc1cc(C)c(-n2cc3sc(N[C@H]4CN(C)CCC4F)nc3n2)c(O)c1 (stereo in doubt) [Example 10, 2-(5-{[(3S,4S)-4-fluoro-1-methylpiperidin-3-yl]amino}-2H-pyrazolo[3,4-d][1,3]thiazol-2-yl)-3,5-dimethylphenol]
1100	> 30000		COC(=O)N1CCC(Nc2nc3nn(-c4c(C)cc(C)cc4O)cc3s2)CC1 [Example 130, methyl 4-{[2-(2-hydroxy-4,6-dimethylphenyl)-2H-pyrazolo[3,4-d][1,3]thiazol-5-yl]amino}piperidine-1-carboxylate]
250	> 10000		Cc1cc(C)c(-n2cc3sc(NC4CCN(C(=O)OCC(Cl)(Cl)Cl)C4)nc3n2)c(O)c1 (stereo not drawn) [Example 69, 2,2,2-trichloroethyl 3-{[2-(2-hydroxy-4,6-dimethylphenyl)-2H-pyrazolo[3,4-d][1,3]thiazol-5-yl]amino}pyrrolidine-1-carboxylate]
780	> 30000		Cc1cc(C)c(-n2cc3sc(NC4CCCN(C)C4=O)nc3n2)c(O)c1 (stereo not drawn) [Example 118, 3-{[2-(2-hydroxy-4,6-dimethylphenyl)-2H-pyrazolo[3,4-d][1,3]thiazol-5-yl]amino}-1-methylpiperidin-2-one]
1400	> 10000		Cc1cc(C)c(-n2cc3sc(NCCC(C)(C)O)nc3n2)c(O)c1 [Example 55, 2-{5-[(3-hydroxy-3-methylbutyl)amino]-2H-pyrazolo[3,4-d][1,3]thiazol-2-yl}-3,5-dimethylphenol]
37	> 30000		Cc1cc(O)c(-n2cc3sc(N[C@@H]4C[C@@H](F)CN(C)C4)nc3n2)c(Cl)c1 [Example 11, 3-chloro-2-(5-{[(3R,5R)-5-fluoro-1-methylpiperidin-3-yl]amino}-2H-pyrazolo[3,4-d][1,3]thiazol-2-yl)-5-methylphenol]
